The record followed here is patent US12545658B2, “Pyridine derivatives as calcium-activated chloride channel modulators” (TMEM16A LIMITED, priority 2019, dated 2026).

Molecules are shown by their SMILES.

The experiment has as its target T1, human TMEM16A (TMEM16Aabc variant) (Homo sapiens, UniProt Q5XXA6).
T1 construct: human TMEM16A (TMEM16Aabc variant)
T1 sequence (Q5XXA6 1-986): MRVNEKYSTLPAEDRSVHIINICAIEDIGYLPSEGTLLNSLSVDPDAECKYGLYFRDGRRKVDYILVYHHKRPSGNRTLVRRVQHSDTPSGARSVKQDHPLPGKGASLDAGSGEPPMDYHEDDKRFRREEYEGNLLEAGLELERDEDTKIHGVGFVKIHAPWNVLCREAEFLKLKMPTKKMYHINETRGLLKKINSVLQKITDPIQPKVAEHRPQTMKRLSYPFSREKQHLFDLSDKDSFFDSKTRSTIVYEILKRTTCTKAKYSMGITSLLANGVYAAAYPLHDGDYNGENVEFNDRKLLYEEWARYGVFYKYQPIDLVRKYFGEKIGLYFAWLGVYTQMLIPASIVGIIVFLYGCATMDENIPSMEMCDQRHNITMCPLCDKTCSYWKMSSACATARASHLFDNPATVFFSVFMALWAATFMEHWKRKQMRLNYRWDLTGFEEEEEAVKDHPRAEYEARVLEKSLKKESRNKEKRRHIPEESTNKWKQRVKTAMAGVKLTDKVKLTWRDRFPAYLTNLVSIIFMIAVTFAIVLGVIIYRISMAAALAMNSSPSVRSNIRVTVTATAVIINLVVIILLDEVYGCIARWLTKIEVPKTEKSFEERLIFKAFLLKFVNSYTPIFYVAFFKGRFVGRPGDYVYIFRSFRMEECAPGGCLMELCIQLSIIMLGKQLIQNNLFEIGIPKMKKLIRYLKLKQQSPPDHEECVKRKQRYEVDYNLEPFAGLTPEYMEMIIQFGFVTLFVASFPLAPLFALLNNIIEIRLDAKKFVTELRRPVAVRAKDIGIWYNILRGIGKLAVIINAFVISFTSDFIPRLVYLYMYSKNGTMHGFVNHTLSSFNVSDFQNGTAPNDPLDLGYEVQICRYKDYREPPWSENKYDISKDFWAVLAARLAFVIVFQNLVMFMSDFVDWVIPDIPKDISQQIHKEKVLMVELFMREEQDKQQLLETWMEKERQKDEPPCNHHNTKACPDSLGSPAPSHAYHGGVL
Kind of experiment: Automated whole-cell patch clamp (QPatch) TMEM16A potentiator assay in FRT cells stably expressing human TMEM16A. In kind it is cell-based. The conditions noted are these: for QPatch TMEM16A % Potentiation @ 370 nM: 370 nM test compound; for QPatch TMEM16A % Potentiation @ 370 nM / QPatch TMEM16A % Potentation @ 3.3 μM: percentage increase of baseline TMEM16A current; for QPatch TMEM16A % Potentation @ 3.3 μM: 3.3 μM test compound; for EC50: FRT-TMEM16A cells, whole-cell patch clamp, peak current at +70 mV, intracellular calcium at EC20. The protocol:
Fisher rat thyroid (FRT) cells stably expressing human TMEM16A (TMEM16Aabc variant; Dr Luis Galietta, Insituto Giannina, Italy) were cultured in T-75 flasks in Hams F-12 media with Coon's modification (Sigma) supplemented with 10% (v/v) foetal bovine serum, penicillin-streptomycin (10,000 U/mL/10000 μg/mL), G-418 (750 μg/mL), L-glutamine (2 mM) and sodium bicarbonate solution (7.5% v/v). At ˜90% confluence cells were harvested for experiments by detachment with a 2:1 (v/v) mixture of Detachin (BMS Biotechnology) and 0.25% (w/v) trypsin-EDTA.
FRT-TMEM16A cells were whole-cell patch clamped using an automated planar patch clamp system (Qpatch, Sophion). Briefly, once high resistance (GOhm) seals were established between the cells and the planar recording array the patch was ruptured using suction pulses to establish the whole-cell recording configuration of the patch clamp technique. The assay employed the following solutions (all reagents Sigma): Intracellular solution (mM): N-methyl-D-glucamine 130, CaCl2 18.2, MgCl2 1, HEPES 10, EGTA 10, BAPTA 20, Mg-ATP 2, pH 7.25, 325 mOsm with sucrose.
Extracellular solution (mM): N-methyl-D-glucamine 130, CaCl2 2, MgCl2 1, HEPES 10, pH 7.3, 320 mOsm with sucrose.
The intracellular solution buffers intracellular calcium at levels required to give ˜20% activation of the maximal TMEM16A mediated current (EC20 for calcium ions). Cells were voltage clamped at a holding potential of −70 mV and a combined voltage step (to +70 mV)/ramp (−90 my to +90 mV) was applied at 0.05 Hz. After a period of current stabilisation test compounds, solubilised in 100% (v/v) DMSO and subsequently diluted into extracellular solution, were applied to generate a cumulative concentration response curve. Each concentration of test compound was incubated for 5 minutes before addition of the next concentration. After the final concentration was tested a supramaximal concentration of either a known active positive modulator or the TMEM16A inhibitor, CaCCinhA01 (Del La Fuente et al, 2008) was added to define the upper and lower limits of the assay.
Compound activity was quantified by measuring the increase in current upon compound addition and expressing this as a percentage increase of baseline TMEM16A current level.
In FIG. 1, IBL equals baseline current, I[#1] equals the peak current during test compound concentration 1 incubation period and so on.
Peak TMEM16A current at +70 mV was plotted as a function of time over the assay period. Baseline current (IBL) was measured after a period of stabilisation. The increase in current for each compound addition was determined by taking the peak current during the incubation period and subtracting the current from the previous recording period and then expressing this as a percentage of the baseline current (% potentiation). For test compound concentration 1 in FIG. 1 this is: (I[#1]−IBL/IBL)×100 For each additional concentration tested the increase in current was determined by subtracting the current from the previous incubation period and normalising the baseline value—for test concentration 2 in FIG. 1 this is: (I[#2]−I[#1])/IBL)×100 The values for each test concentration were plotted as a cumulative function of concentration eg. for test concentration two this would be the sum of the peak changes measured during concentration one plus concentration two.
In general terms: In patch-clamp work, channel activity is measured electrically.

Turning to `O=C(Cc1cc2[nH]ncc2cc1F)Nc1ccnc(C(=O)NC2(C(F)(F)F)CC2)c1` [Example 6.1, 4-[[2-(5-Fluoro-1H-indazol-6-yl)acetyl]amino]-N-[1-(trifluoromethyl)cyclopropyl]pyridine-2-carboxamide], the “QPatch TMEM16A % Potentiation @ 370 nM” value came to 107%, the “QPatch TMEM16A % Potentation @ 3.3 μM” value worked out at 153% and the EC50 was 0.14 µM.

In the case of `CC(C)(NC(=O)c1cc(NC(=O)Cc2ccc3cc[nH]c3c2)ccn1)C(F)(F)F` [Example 13, 4-[[2-(1H-Indol-6-yl)acetyl]amino]-N-(2,2,2-trifluoro-1,1-dimethyl-ethyl) pyridine-2-carboxamide], the “QPatch TMEM16A % Potentiation @ 370 nM” value stood at 47%, the “QPatch TMEM16A % Potentation @ 3.3 μM” value stood at 93% and the EC50 amounted to 0.41 µM.

As for `CC(C)(C)NC(=O)c1cc(NC(=O)Cc2ccc3c(C(F)(F)F)n[nH]c3c2)ccn1` [Example 8, N-tert-Butyl-4-[[2-[3-(trifluoromethyl)-1H-indazol-6-yl]acetyl]amino]pyridine-2-carboxamide], the “QPatch TMEM16A % Potentiation @ 370 nM” value came out at 65%, the “QPatch TMEM16A % Potentation @ 3.3 μM” value is reported as 98% and the EC50 was 0.21 µM.

As for `CC(C)(C)NC(=O)c1cc(NC(=O)Cc2cc3[nH]ncc3cc2Cl)ccn1` [Example 7.1, N-tert-Butyl-4-[[2-(5-chloro-1H-indazol-6-yl)acetyl]amino]pyridine-2-carboxamide], the “QPatch TMEM16A % Potentiation @ 370 nM” value was 47%, the “QPatch TMEM16A % Potentation @ 3.3 μM” value stood at 82% and the EC50 was 0.27 µM.

As to `CC(C)(NC(=O)c1cc(NC(=O)Cc2ccc3cn[nH]c3c2)ccn1)C(F)F` [Example 5, N-(2,2-Difluoro-1,1-dimethyl-ethyl)-4-[[2-(1H-indazol-6-yl)acetyl]amino] pyridine-2-carboxamide], the “QPatch TMEM16A % Potentiation @ 370 nM” value is 80%, the “QPatch TMEM16A % Potentation @ 3.3 μM” value is reported as 104% and the EC50 was 0.11 µM.

On to `C#CC(C)(C)NC(=O)c1cc(NC(=O)Cc2cccc3[nH]ncc23)ccn1` [Compound A, reference compound], for which the “QPatch TMEM16A % Potentiation @ 370 nM” value came out at 43%, the “QPatch TMEM16A % Potentation @ 3.3 μM” value is given as 223% and the EC50 came to 1.93 µM.

Consider `CC1(NC(=O)c2cc(NC(=O)Cc3ccc4cn[nH]c4c3)ccn2)CC(F)(F)C1` [Example 4.3, N-(3,3-Difluoro-1-methyl-cyclobutyl)-4-[[2-(1H-indazol-6-yl)acetyl]amino]pyridine-2-carboxamide], for which the “QPatch TMEM16A % Potentiation @ 370 nM” value is recorded as 173%, the “QPatch TMEM16A % Potentation @ 3.3 μM” value is on record as 226% and the EC50 came out at 0.05 µM.

Consider `C#CC1(NC(=O)c2cc(NC(=O)Cc3ccc4cn[nH]c4c3)ccn2)CCCC1` [Example 4, N-(1-Ethynylcyclopentyl)-4-[[2-(1H-indazol-6-yl)acetyl]amino]pyridine-2-carboxamide], for which the “QPatch TMEM16A % Potentiation @ 370 nM” value came out at 96%, the “QPatch TMEM16A % Potentation @ 3.3 μM” value was determined as 237% and the EC50 came to 0.01 µM.

Consider `C#CC1(NC(=O)c2cc(NC(=O)Cc3cc(Cl)c4cn[nH]c4c3)ccn2)CCCC1` [Example 6.4, 4-[[2-(4-Chloro-1H-indazol-6-yl)acetyl]amino]-N-(1-ethynylcyclopentyl) pyridine-2-carboxamide], for which the “QPatch TMEM16A % Potentiation @ 370 nM” value is on record as 55%, the “QPatch TMEM16A % Potentation @ 3.3 μM” value turned out to be 78% and the EC50 was 0.02 µM.

Take `CC(O)(c1n[nH]c2cc(CC(=O)Nc3ccnc(C(=O)NC4(C(F)(F)F)CC4)c3)ccc12)C(F)(F)F` (stereo not drawn) [Example 12, 4-[[2-[3-(2,2,2-Trifluoro-1-hydroxy-1-methyl-ethyl)-1H-indazol-6-yl]acetyl]amino]-N-[1-(trifluoromethyl)cyclopropyl]pyridine-2-carboxamide]: the “QPatch TMEM16A % Potentiation @ 370 nM” value was determined as 204%, the “QPatch TMEM16A % Potentation @ 3.3 μM” value stood at 338% and the EC50 amounted to 0.24 µM.

As to `O=C(Cc1ccc2cn[nH]c2c1)Nc1ccnc(C(=O)NC2CCCC2(F)F)c1` (stereo not drawn) [Example 5.3, N-(2,2-Difluorocyclopentyl)-4-[[2-(1H-indazol-6-yl)acetyl]amino]pyridine-2-carboxamide], the “QPatch TMEM16A % Potentiation @ 370 nM” value is 69%, the “QPatch TMEM16A % Potentation @ 3.3 μM” value is 113% and the EC50 worked out at 0.25 µM.

As to `CC(C)(C)NC(=O)c1cc(NC(=O)Cc2cc3[nH]ncc3cc2F)ccn1` [Example 6, N-tert-Butyl-4-[[2-(5-fluoro-1H-indazol-6-yl)acetyl]amino]pyridine-2-carboxamide], the “QPatch TMEM16A % Potentiation @ 370 nM” value was 91%, the “QPatch TMEM16A % Potentation @ 3.3 μM” value stood at 164% and the EC50 was determined as 0.23 µM.

In the case of `O=C(Cc1cc2[nH]ncc2cc1F)Nc1ccnc(C(=O)NC2CCCC2(F)F)c1` (stereo not drawn) [Example 6.2, N-(2,2-Difluorocyclopentyl)-4-[[2-(5-fluoro-1H-indazol-6-yl)acetyl]amino]pyridine-2-carboxamide], the “QPatch TMEM16A % Potentiation @ 370 nM” value is listed as 46%, the “QPatch TMEM16A % Potentation @ 3.3 μM” value is 70% and the EC50 came to 0.31 µM.

For `CC(C)(C)NC(=O)c1cc(NC(=O)Cc2ccc3cn[nH]c3c2)ccn1` [Example 2, N-tert-Butyl-4-[[2-(1H-indazol-6-yl)acetyl]amino]pyridine-2-carboxamide], the “QPatch TMEM16A % Potentiation @ 370 nM” value is given as 87%, the “QPatch TMEM16A % Potentation @ 3.3 μM” value is on record as 131% and the EC50 is 0.18 µM.

On to `O=C(Cc1ccc2cn[nH]c2c1)Nc1ccnc(C(=O)NC2(C(F)(F)F)COC2)c1` [Example 11.3, 4-[[2-(1H-Indazol-6-yl)acetyl]amino]-N-[3-(trifluoromethyl)oxetan-3-yl]pyridine-2-carboxamide], for which the “QPatch TMEM16A % Potentiation @ 370 nM” value turned out to be 117%, the “QPatch TMEM16A % Potentation @ 3.3 μM” value stood at 180% and the concentration for a half-maximal effect (EC50) stood at 0.22 µM.

Consider `O=C(Cc1cc(Cl)c2cn[nH]c2c1)Nc1ccnc(C(=O)NC2(C(F)(F)F)CC2)c1` [Example 6.3, 4-[[2-(4-Chloro-1H-indazol-6-yl)acetyl]amino]-N-[1-(trifluoromethyl)cyclopropyl]pyridine-2-carboxamide], for which the “QPatch TMEM16A % Potentiation @ 370 nM” value is given as 172%, the “QPatch TMEM16A % Potentation @ 3.3 μM” value amounted to 220% and the EC50 came out at 0.11 µM.

The term EC50 denotes the concentration at which the effect is half-maximal.
